Data on 26 compounds can be found in patent publication US20200055839A1 (priority 2017, published 2020).

For the experiment, the system named is NL-RLuc virus. As to the kind of experiment: Inhibition of HIV replication (NL-RLuc virus, luciferase readout in MT-2 cells). In kind it is cell-based. To be noted: Human immunodeficiency virus 1, MT2, 120 h, MT-2 cells infected with NL-RLuc virus, 5 days of incubation, 10% FBS, at least 2 experiments. Summed up: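 EC50 derived via median effect equation from at least 2 experiments, using luciferase expression as virus-growth readout. Replication-competent NL-RLuc reporter virus (nef partly replaced by Renilla luciferase) infected MT-2 cells with serial compound dilutions; 5-day incubation in RPMI 1640 plus 10% FBS.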

On to `Cc1cccc(CCOc2ccc(-c3cnc(C)c([C@H](OC(C)(C)C)C(=O)O)c3N3CCC(C)(C)CC3)cc2)c1` [Example 365, (2S)-2-(tert-butoxy)-2-[4-(4,4-dimethylpiperidin-1-yl)-2-methyl-5-{4-[2-(3-methylphenyl)ethoxy]phenyl}pyridin-3-yl]acetic acid], for which the EC50 (usually the midpoint of the concentration-response curve) was 2 nM.
Under `Cc1ccc(F)cc1CCOc1ccc(-c2cnc(C)c([C@H](OC(C)(C)C)C(=O)O)c2N2CCC(C)(C)CC2)nc1` [Example 295, (2S)-2-(tert-butoxy)-2-[4′-(4,4-dimethylpiperidin-1-yl)-5-[2-(5-fluoro-2-methylphenyl)ethoxy]-6′-methyl-[2,3′-bipyridine]-5′-yl]acetic acid] stands 2 nM.
Under `Cc1ncc(-c2cnc(O[C@H](C)C(C)C)c(F)c2)c(N2CCC(C)(C)CC2)c1[C@H](OC(C)(C)C)C(=O)O` [Example 369, (2S)-2-(tert-butoxy)-2-[4-(4,4-dimethylpiperidin-1-yl)-5′-fluoro-6-methyl-6′-{[(2R)-3-methylbutan-2-yl]oxy}-[3,3′-bipyridine]-5-yl]acetic acid] stands 2 nM.
`Cc1ncc(-c2cc(F)c(CNc3ncnc4c3oc3ccccc34)c(F)c2)c(N2CCC(C)(C)CC2)c1[C@H](OC(C)(C)C)C(=O)O` [Example 219, (S)-2-(5-(4-((Benzofuro[3,2-d]pyrimidin-4-ylamino)methyl)-3,5-difluorophenyl)-4-(4,4-dimethylpiperidin-1-yl)-2-methylpyridin-3-yl)-2-(tert-butoxy)acetic acid] registered an EC50 of 2 nM.
`Cc1ncc(-c2ccc(OCC(C)C)nc2F)c(N2CCC(C)(C)CC2)c1[C@H](OC(C)(C)C)C(=O)O` [Example 434, (2S)-2-tert-Butoxy-2-(4-(4,4-dimethylpiperidin-1-yl)-2′-fluoro-6′-isobutoxy-6-methyl-3, 3′-bipyridin-5-yl)acetic acid] had an EC50 of 13 nM.
`Cc1nc(N)c(-c2ccc(OCCc3ccc(F)cc3)c(F)c2)c(N2CCC(C)(C)CC2)c1[C@H](OC(C)(C)C)C(=O)O` [Example 73, (S)-2-(6-Amino-4-(4,4-dimethylpiperidin-1-yl)-5-(3-fluoro-4-(4-fluorophenethoxy)phenyl)-2-methylpyridin-3-yl)-2-(tert-butoxy)acetic acid] yielded an EC50 of 1 nM.
As for `COc1ccc(F)cc1-c1cnc(C)c([C@H](OC(C)(C)C)C(=O)O)c1N1CCC(C)(C)CC1` [Example 151, (2S)-2-(tert-Butoxy)-2-[4-(4,4-dimethylpiperidin-1-yl)-5-(5-fluoro-2-methoxyphenyl)-2-methylpyridin-3-yl]acetic acid], the figure is 6 nM; as for `Cc1ncc(-c2ccc(O[C@@H](C)C(C)C)cn2)c(N2CCC(C)(C)CC2)c1[C@H](OC(C)(C)C)C(=O)O` [Example 311, (2S)-2-(tert-butoxy)-2-[4′-(4,4-dimethylpiperidin-1-yl)-6′-methyl-5-{[(2S)-3-methylbutan-2-yl]oxy}-[2,3′-bipyridine]-5′-yl]acetic acid], 1 nM.
With `Cc1nc(N)c(-c2cnc(OCCc3cccc(F)c3)c(F)c2)c(N2CCC(C)(C)CC2)c1[C@H](OC(C)(C)C)C(=O)O` [Example 116, (S)-2-(2-Amino-4-(4,4-dimethylpiperidin-1-yl)-5′-fluoro-6′-(3-fluorophenethoxy)-6-methyl-[3, 3′-bipyridin]-5-yl)-2-(tert-butoxy)acetic acid], the EC50 is 1 nM.
The compound `Cc1nc(C#N)c(-c2ccc(CN(C)c3ncnc4c3oc3ccccc34)cc2)c(N2CCC(C)(C)CC2)c1[C@H](OC(C)(C)C)C(=O)O` [Example 22, (2S)-2-(tert-Butoxy)-2-[6-cyano-4-(4,4-dimethylpiperidin-1-yl)-2-methyl-5-(4-{[methyl({8-oxa-3,5-diazatricyclo[7.4.0.0^2,7]trideca-1 (9), 2(7), 3,5,10, 12-hexaen-6-yl})amino]methyl}phenyl)pyridin-3-yl]acetic acid] yielded an EC50 of 3 nM.
As for `Cc1nc(Nc2cncnc2)c(-c2ccc(OCCc3ccc(F)cc3)cc2)c(N2CCC(C)(C)CC2)c1[C@H](OC(C)(C)C)C(=O)O` [Example 66, (S)-2-(tert-Butoxy)-2-(4-(4,4-dimethylpiperidin-1-yl)-5-(4-(4-fluorophenethoxy)phenyl)-2-methyl-6-(pyrimidin-5-ylamino)pyridin-3-yl)acetic acid], the figure is 2 nM; as for `Cc1ncc(-c2cccnc2)c(N2CCC(C)(C)CC2)c1[C@H](OC(C)(C)C)C(=O)O` [Example 155, (2S)-2-(tert-Butoxy)-2-[4-(4,4-dimethylpiperidin-1-yl)-6-methyl-[3, 3′-bipyridine]-5-yl]acetic acid], 11 nM.
`Cc1ncc(-c2ncc3ccccc3n2)c(N2CCC(C)(C)CC2)c1[C@H](OC(C)(C)C)C(=O)O` [Example 267, (S)-2-(tert-Butoxy)-2-(4-(4,4-dimethylpiperidin-1-yl)-2-methyl-5-(quinazolin-2-yl)pyridin-3-yl)acetic acid] had a concentration for a half-maximal effect (EC50) of 9 nM.
`COc1c(F)cc(-c2c(CO)nc(C)c([C@H](OC(C)(C)C)C(=O)O)c2N2CCC(C)(C)CC2)cc1F` [Example 139, (S)-2-(tert-Butoxy)-2-(5-(3,5-difluoro-4-methoxyphenyl)-4-(4,4-dimethylpiperidin-1-yl)-6-(hydroxymethyl)-2-methylpyridin-3-yl)acetic acid] returned an EC50 of 27 nM.
Under `Cc1nc(NCc2ccccn2)c(-c2ccc(OCCc3ccc(F)cc3)cc2)c(N2CCC(C)(C)CC2)c1[C@H](OC(C)(C)C)C(=O)O` [Example 97, (S)-2-(tert-Butoxy)-2-(4-(4,4-dimethylpiperidin-1-yl)-5-(4-(4-fluorophenethoxy)phenyl)-2-methyl-6-((pyridin-2-ylmethyl)amino)pyridin-3-yl)acetic acid] stands 5 nM.
Under `CCOc1c(C(F)(F)F)ccc(-c2cnc(C)c([C@H](OC(C)(C)C)C(=O)O)c2N2CCC(C)(C)CC2)c1F` [Example 173, (2S)-2-(tert-butoxy)-2-[4-(4,4-dimethylpiperidin-1-yl)-5-[3-ethoxy-2-fluoro-4-(trifluoromethyl)phenyl]-2-methylpyridin-3-yl]acetic acid] stands 21 nM; under `Cc1nc(OCCc2cccc(F)c2)ccc1-c1cnc(C)c([C@H](OC(C)(C)C)C(=O)O)c1N1CCC(C)(C)CC1` [Example 261, (S)-2-(tert-Butoxy)-2-(4-(4,4-dimethylpiperidin-1-yl)-6′-(3-fluorophenethoxy)-2′,6-dimethyl-[3, 3′-bipyridin]-5-yl)acetic acid], 28 nM.
For `Cc1ncc(-c2cnc(OCCc3cccc(Cl)c3)c(F)c2)c(N2CCC(C)(C)CC2)c1[C@H](OC(C)(C)C)C(=O)O` [Example 371, (2S)-2-(tert-butoxy)-2-{6′-[2-(3-chlorophenyl)ethoxy]-4-(4,4-dimethylpiperidin-1-yl)-5′-fluoro-6-methyl-[3,3′-bipyridine]-5-yl}acetic acid], the EC50 was 1 nM.
As for `Cc1ncc(-c2cc(F)c(F)c(F)c2)c(N2CCC(C)(C)CC2)c1[C@H](OC(C)(C)C)C(=O)O` [Example 129, (2S)-2-(tert-Butoxy)-2-[4-(4,4-dimethylpiperidin-1-yl)-2-methyl-5-(3,4,5-trifluorophenyl)pyridin-3-yl]acetic acid], the figure is 3 nM; as for `COc1ccc(-c2cnc(C)c([C@H](OC(C)(C)C)C(=O)O)c2N2CCC(C)(C)CC2)nn1` [Example 15, (S)-2-(tert-Butoxy)-2-(4-(4,4-dimethylpiperidin-1-yl)-5-(6-methoxypyridazin-3-yl)-2-methylpyridin-3-yl)acetic acid], 16 nM; as for `Cc1cc(CCOc2ccc(-c3cnc(C)c([C@H](OC(C)(C)C)C(=O)O)c3N3CCC(C)(C)CC3)nc2)ccc1F` [Example 294, (2S)-2-(tert-butoxy)-2-[4′-(4,4-dimethylpiperidin-1-yl)-5-[2-(4-fluoro-3-methylphenyl)ethoxy]-6′-methyl-[2,3′-bipyridine]-5′-yl]acetic acid], 2 nM.
The compound `Cc1ncc(-c2ccc(OCCc3c(F)cccc3F)cn2)c(N2CCC(C)(C)CC2)c1[C@H](OC(C)(C)C)C(=O)O` [Example 327, (2S)-2-(tert-butoxy)-2-{5-[2-(2,6-difluorophenyl)ethoxy]-4′-(4,4-dimethylpiperidin-1-yl)-6′-methyl-[2,3′-bipyridine]-5′-yl}acetic acid] returned an EC50 of 5 nM.
In turn, `COc1ccccc1CCOc1ccc(-c2cnc(C)c([C@H](OC(C)(C)C)C(=O)O)c2N2CCC(C)(C)CC2)nc1` [Example 296, (2S)-2-(tert-butoxy)-2-[4′-(4,4-dimethylpiperidin-1-yl)-5-[2-(2-methoxyphenyl)ethoxy]-6′-methyl-[2,3′-bipyridine]-5′-yl]acetic acid] registered a concentration giving a half-maximal response (EC50) of 2 nM.
With `Cc1ccc(CCOc2ncc(-c3cnc(C)c([C@H](OC(C)(C)C)C(=O)O)c3N3CCC(C)(C)CC3)cc2F)cc1` [Example 405, (2S)-2-(tert-butoxy)-2-[4-(4,4-dimethylpiperidin-1-yl)-5′-fluoro-6-methyl-6′-[2-(4-methylphenyl)ethoxy]-[3,3′-bipyridine]-5-yl]acetic acid], the EC50 turned out to be 4 nM.
Under `CC(=O)N1CCC(Nc2nc(C)c([C@H](OC(C)(C)C)C(=O)O)c(N3CCC(C)(C)CC3)c2-c2ccc(OCCc3ccc(F)cc3)cc2)CC1` [Example 100, (S)-2-(6-((1-Acetylpiperidin-4-yl)amino)-4-(4,4-dimethylpiperidin-1-yl)-5-(4-(4-fluorophenethoxy)phenyl)-2-methylpyridin-3-yl)-2-(tert-butoxy)acetic acid] stands 0.5 nM; under `Cc1cc(OCC(C)C)ncc1-c1cnc(C)c([C@H](OC(C)(C)C)C(=O)O)c1N1CCC(C)(C)CC1` [Example 429, (2S)-2-tert-Butoxy-2-(4-(4,4-dimethylpiperidin-1-yl)-6′-isobutoxy-4′,6-dimethyl-3, 3′-bipyridin-5-yl)acetic acid], 219 nM.
